Experimental data from patent publication US20160311791A1, “NOVEL TRICYCLIC CALCIUM SENSING RECEPTOR ANTOGONISTS FOR THE TREATMENT OF OSTEOPOSOSIS” (MERCK SHARP & DOHME CORP., priority 2013, published 2016).

Each molecule was assayed against T1, human CaSR (Homo sapiens, UniProt P41180) (assay: CaSR FLIPR assay (calcilytic activity)). Conditions: HEK293 cells stably expressing human recombinant CaSR; 1 mM CaCl2 agonist; Tables 1-24; read-out: FLIPR ASSAY IC50.
T1 sequence (P41180 20-1078): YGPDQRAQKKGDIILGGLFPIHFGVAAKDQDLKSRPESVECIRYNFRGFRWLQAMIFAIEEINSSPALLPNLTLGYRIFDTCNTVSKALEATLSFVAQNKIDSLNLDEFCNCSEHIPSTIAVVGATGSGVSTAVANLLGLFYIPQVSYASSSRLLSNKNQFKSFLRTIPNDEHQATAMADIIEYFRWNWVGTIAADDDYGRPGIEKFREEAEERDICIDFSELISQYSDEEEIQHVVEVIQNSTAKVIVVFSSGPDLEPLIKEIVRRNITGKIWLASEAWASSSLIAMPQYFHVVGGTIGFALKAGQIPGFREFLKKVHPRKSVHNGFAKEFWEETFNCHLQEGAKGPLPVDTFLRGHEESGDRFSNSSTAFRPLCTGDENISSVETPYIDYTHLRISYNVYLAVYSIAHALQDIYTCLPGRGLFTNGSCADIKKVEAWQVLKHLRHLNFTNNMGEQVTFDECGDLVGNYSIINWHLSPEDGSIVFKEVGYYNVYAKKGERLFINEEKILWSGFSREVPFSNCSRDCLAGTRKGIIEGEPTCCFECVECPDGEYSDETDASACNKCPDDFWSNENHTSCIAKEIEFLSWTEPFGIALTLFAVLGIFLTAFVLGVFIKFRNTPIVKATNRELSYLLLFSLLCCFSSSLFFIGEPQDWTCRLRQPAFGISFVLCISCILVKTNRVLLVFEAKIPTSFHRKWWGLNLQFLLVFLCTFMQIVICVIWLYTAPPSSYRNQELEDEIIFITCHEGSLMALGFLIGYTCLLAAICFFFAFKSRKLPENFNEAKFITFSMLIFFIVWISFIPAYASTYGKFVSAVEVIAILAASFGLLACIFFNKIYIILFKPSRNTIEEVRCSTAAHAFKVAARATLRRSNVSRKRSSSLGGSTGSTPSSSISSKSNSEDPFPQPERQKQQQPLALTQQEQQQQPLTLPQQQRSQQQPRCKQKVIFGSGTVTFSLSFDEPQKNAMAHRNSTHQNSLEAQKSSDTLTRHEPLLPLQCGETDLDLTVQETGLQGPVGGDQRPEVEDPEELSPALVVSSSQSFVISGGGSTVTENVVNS
Format: cell-based
Parameters: expressed in transfected cells
Method: Procedures for CaSR FLIPR Assay
Calcilytic activity of the compound is measured in HEK293 cells stably expressing human recombinant CaSR (HEK-CaSR) using a FLIPR^TETRA device (Molecular Devices, Sunnyvale, Calif.) according to the manufacturer's directions. […] On the day of the assay, one vial of FLIPR Calcium 4 Assay Kit reagent Component A was equilibrated to room temperature. The content of the Component A vial was diluted by adding 10 ml dilution buffer (2×loading dye). The sample was mixed by vortexing (1-2 minutes) until the contents of the vial dissolved. The Component A vial mixture was diluted with 10 ml dilution buffer. Media was aspirated from the cells and 80 μl of loading buffer was added to each well. Plates were incubated for 1 hour at 37° C. and then placed at room temperature for 10 minutes. A two-stage method of generating 10-point serial dilutions was used. Compound was serially diluted in 100% DMSO (10 point, 3-fold dilution of each compound from 2 mM in 100% DMSO). 3 μl of serially diluted compound was transferred into a second assay microplate that contained 97 μl of TETRA dilution buffer (20 mM HEPES pH7.4, 1×HBSS without Ca and Mg, 0.4 mM CaCl2, 0.4 mM MgSO4, 0.5 mM MgCl2) to create the intermediate dilution plate. After reading the base line, the compounds in 0.5% DMSO in dilution buffer were added to their respective wells as 20 μl aliquots at 6×the final drug concentration. The fluorescence signals were then read. Subsequently, 20 μl of 3.6 mM of CaCl2 agonist (1 mM final concentration) was added to each well. For background, 20 μl of TETRA dilution buffer was added instead. The protocol consisted of a pre-addition read of 10 frames (10×1 frame/sec), a post 1st addition read of 100 frames (60×1 frame/sec, 40×1 frame/3 sec), pause 3 min, a post 2nd addition read of 100 frames (60×1 frame/sec, 40×1 frame/3 sec) on a FLIPR^TETRA Plate Reader.

| Structure (SMILES) | IC50 [nM] |
| --- | --- |
| C[C@@H](OC[C@H](O)CNC(C)(C)Cc1ccc2ccccc2c1)c1c(Cl)ccc2c1[C@@H]1[C@H](O2)[C@H]1C(=O)O [Example 15-1] | 17 |
| C[C@@H](OC[C@H](O)CNC(C)(C)CCSc1ccccc1)c1cccc2c1O[C@@H]1[C@@H](C(=O)O)[C@H]21 [Example 1-20] | 330 |
| C[C@@H](OC[C@H](O)CNC(C)(C)Cc1ccc(Cl)cc1F)c1cccc2c1O[C@H]1[C@H](C(=O)O)[C@@H]21 [Example 2-6] | 730 |
| C[C@@H](OC[C@H](O)CNC(C)(C)Cc1ccc(Cl)c(F)c1)c1cccc2c1O[C@H]1[C@H](C(=O)O)[C@@H]21 [Example 2-2] | 148 |
| C[C@@H](OC[C@H](O)CNC(C)(C)Cc1ccc([S+](C)[O-])c(F)c1)c1cccc2c1O[C@@H]1[C@@H](C(=O)O)[C@H]21 (stereo partly shown) [Example 1-18] | > 10000 |
| C[C@@H](OC[C@H](O)CNC(C)(C)Cc1ccc2sccc2c1)c1cccc2c1O[C@@H]1[C@@H](C(=O)O)[C@H]21 [Example 1-9] | 27 |
| C[C@@H](OC[C@H](O)CNC(C)(C)Cc1ccc2ccccc2c1)c1cccc2c1O[C@H]1[C@H](C(=O)O)[C@@H]21 [Example 2-1] | 132 |
| Cc1ccc(CC(C)(C)NC[C@@H](O)CO[C@H](C)c2cccc3c2O[C@H]2[C@H](C(=O)O)[C@@H]32)cc1C [Example 2-4] | 381 |
| C[C@@H](OC[C@H](O)CNC(C)(C)COCc1ccccc1)c1cccc2c1O[C@H]1[C@H](C(=O)O)[C@@H]21 [Example 2-5] | 4220 |
| C[C@@H](OC[C@H](O)CNC(C)(C)Cc1ccc2c(c1)CCC2)c1cccc2c1O[C@@H]1[C@@H](C(=O)O)[C@H]21 [Example 1-7] | 110 |
| CSc1ccc(CC(C)(C)NC[C@@H](O)CO[C@H](C)c2cccc3c2O[C@@H]2[C@@H](C(=O)O)[C@H]32)cc1F [Example 1-17] | 165 |
| Cc1ccc(CC(C)(C)NC[C@@H](O)CO[C@H](C)c2cccc3c2O[C@@H]2[C@@H](C(=O)O)[C@H]32)cc1F [Example 1-4] | 78 |
| Cc1ccc([C@@H](C)OC[C@H](O)CN2CCCC2(C)Cc2ccccc2)c2c1O[C@@H]1[C@@H](C(=O)O)[C@H]21 (stereo partly shown) [Example 8-18] | 1330 |
| C[C@@H](OC[C@H](O)CNC(C)(C)Cc1ccc2ccccc2c1)c1cccc2c1O[C@@H]1[C@@H](C(=O)NS(=O)(=O)C3(C)CC3)[C@H]21 [Example 4-1] | 60 |

More lines, now with the values ahead:

| IC50 [nM] | Structure (SMILES) |
| --- | --- |
| 21 | Cc1ccc([C@@H](C)OC[C@H](O)CNC(C)(C)Cc2ccc3c(c2)CCS3)c2c1O[C@@H]1[C@@H](C(=O)O)[C@H]21 [Example 8-26] |
| 18 | Cc1ccc(CC(C)(C)NC[C@@H](O)CO[C@H](C)c2ccc(C)c3c2C2[C@H](O3)[C@H]2C(=O)O)cc1C (stereo partly shown) [Example 8-5] |
| 38 | COc1ccc(CC(C)(C)NC[C@@H](O)CO[C@H](C)c2cccc3c2[C@@H]2[C@H](O3)[C@H]2C(=O)O)c(Cl)c1 [Example 5-16] |
| 3550 | CC(C)(Cc1ccc2ccccc2c1)NC[C@@H](O)COc1ccc2c(c1)C1C(O2)C1C(=O)O (stereo partly shown) [Example 22-1] |
| 53 | CSc1ccc(CC(C)(C)NC[C@@H](O)CO[C@H](C)c2cccc3c2[C@@H]2[C@H](O3)[C@H]2C(=O)O)cc1Cl [Example 5-18] |
| 2720 | CC(OC[C@H](O)CNC(C)(C)Cc1ccc2ccccc2c1)c1ccc2c(c1)C1C(O2)C1C(=O)O (stereo partly shown) [Example 21-1] |
| 150 | C[C@@H](OC[C@H](O)CNC(C)(C)Cc1ccc2ccccc2c1)c1cccc2c1C[C@H]1[C@H](C(=O)O)[C@@H]21 [Example 14-2] |
| > 10000 | C[C@@H](OC[C@H](O)CNC(C)(C)Cc1ccc([S+](C)[O-])c(F)c1)c1cccc2c1[C@@H]1[C@H](O2)[C@H]1C(=O)O (stereo partly shown) [Example 5-15] |
| 65 | Cc1ccc([C@@H](C)OC[C@H](O)CNC(C)(C)CCSc2ccc(F)cc2)c2c1O[C@@H]1[C@@H](C(=O)O)[C@H]21 [Example 8-31] |
| 42 | Cc1ccc([C@@H](C)OC[C@H](O)CNC(C)(C)Cc2ccc(Cl)c(Cl)c2)c2c1O[C@H]1[C@H](C(=O)O)[C@@H]21 [Example 9-10] |
| 42 | Cc1ccc([C@@H](C)OC[C@H](O)CNC(C)(C)Cc2ccc3occc3c2)c2c1O[C@@H]1[C@@H](C(=O)O)[C@H]21 [Example 8-7] |
| 90 | Cc1ccc([C@@H](C)OC[C@H](O)CNC(C)(C)CCOc2ccccc2)c2c1O[C@@H]1[C@@H](C(=O)O)[C@H]21 [Example 8-17] |
| 27 | CSc1ccc(CC(C)(C)NC[C@@H](O)CO[C@H](C)c2cccc3c2[C@@H]2[C@H](O3)[C@H]2C(=O)O)cc1F [Example 5-14] |
| 138 | Cc1ccc([C@@H](C)OC[C@H](O)CNC(C)(C)Cc2ccc(F)c(F)c2)c2c1O[C@@H]1[C@@H](C(=O)O)[C@H]21 [Example 8-19] |
| 50 | Cc1ccc([C@@H](C)OC[C@H](O)CNC(C)(C)CCSc2ccccc2)c2c1O[C@@H]1[C@@H](C(=O)O)[C@H]21 [Example 8-30] |
| 17 | CSc1ccc(CC(C)(C)NC[C@@H](O)CO[C@H](C)c2c(Cl)cc(C)c3c2[C@@H]2[C@H](O3)[C@H]2C(=O)O)cc1F [Example 16-6] |
| 150 | C[C@@H](OC[C@H](O)CNC(C)(C)CCSc1ccccc1)c1cccc2c1[C@@H]1[C@H](O2)[C@H]1C(=O)O [Example 5-17] |
